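Each compound was tested at five concentrations against cells in 96-well plates for 48 hours. Abbreviation: GI50, concentration required for 50% inhibition of growth.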 Calls of active or inactive are those of the source. Rule as the data show it: active = GI50 up to about 1.1 µM and inactive = higher.
How the values were obtained:
Test in all cases: DTP human tumour cell line panel, 48 h
[1] = tested on: 786-0
[2] = tested on: CAKI-1
[3] = tested on: CCRF-CEM
[4] = tested on: COLO 205
[5] = tested on: DLD-1
[6] = tested on: DMS-114
[7] = tested on: DMS-273
[8] = tested on: HCC 2998
[9] = tested on: HCT-116
[10] = tested on: HL-60
[11] = tested on: HOP-62
[12] = tested on: HOP-92
[13] = tested on: IGROV-1
[14] = tested on: K562
[15] = tested on: LXFL 529
[16] = tested on: M14
[17] = tested on: M19-MEL
[18] = tested on: MOLT-4
[19] = tested on: Malme-3M
[20] = tested on: NCI-H226
[21] = tested on: NCI-H23
[22] = tested on: NCI-H522
[23] = tested on: OVCAR-4
[24] = tested on: RPMI-8226
[25] = tested on: SF-268
[26] = tested on: SF-539
[27] = tested on: SK-MEL-28
[28] = tested on: SK-MEL-2
[29] = tested on: SK-OV-3
[30] = tested on: SNB-75
[31] = tested on: SNB-78
[32] = tested on: SR
[33] = tested on: UACC-62
[34] = tested on: UO-31
[35] = tested on: A498
[36] = tested on: A549
[37] = tested on: ACHN
[38] = tested on: EKVX
[39] = tested on: HT-29
[40] = tested on: KM12
[41] = tested on: NCI-H460
[42] = tested on: OVCAR-3
[43] = tested on: OVCAR-5
[44] = tested on: OVCAR-8
[45] = tested on: RXF 393
[46] = tested on: SF-295
[47] = tested on: SK-MEL-5
[48] = tested on: SN12C
[49] = tested on: SNB-19
[50] = tested on: SW-620
[51] = tested on: TK-10
[52] = tested on: U-251
[53] = tested on: UACC-257
[54] = tested on: HCT-15
[55] = tested on: KM-20L2
[56] = tested on: LOX IMVI

## Cc1c2cc(Cl)ccc2n2c(=O)c3ccccc3[nH]c(=O)c12
[1]
  GI50: 41.5 µM (inactive)
[2]
  GI50: > 100 µM (inactive)
[3]
  GI50: 36.1 µM (inactive)
[4]
  GI50: > 100 µM (inactive)
[5]
  GI50: > 100 µM (inactive)
[6]
  GI50: > 100 µM (inactive)
[7]
  GI50: > 100 µM (inactive)
[8]
  GI50: > 100 µM (inactive)
[9]
  GI50: 69.2 µM (inactive)
[10]
  GI50: > 10 µM (inactive)
[11]
  GI50: 31.2 µM (inactive)
[12]
  GI50: > 100 µM (inactive)
[13]
  GI50: > 100 µM (inactive)
[14]
  GI50: 50.1 µM (inactive)
[15]
  GI50: > 100 µM (inactive)
[16]
  GI50: > 100 µM (inactive)
[17]
  GI50: > 100 µM (inactive)
[18]
  GI50: 42.9 µM (inactive)
[19]
  GI50: > 100 µM (inactive)
[20]
  GI50: > 100 µM (inactive)
[21]
  GI50: > 100 µM (inactive)
[22]
  GI50: > 100 µM (inactive)
[23]
  GI50: 49.8 µM (inactive)
[24]
  GI50: > 100 µM (inactive)
[25]
  GI50: > 100 µM (inactive)
[26]
  GI50: 78.2 µM (inactive)
[27]
  GI50: > 100 µM (inactive)
[28]
  GI50: > 100 µM (inactive)
[29]
  GI50: > 100 µM (inactive)
[30]
  GI50: 59.6 µM (inactive)
[31]
  GI50: > 100 µM (inactive)
[32]
  GI50: 45.3 µM (inactive)
[33]
  GI50: > 100 µM (inactive)
[34]
  GI50: > 100 µM (inactive)

## ClCCC[Si]12OCCN(CCO1)CCO2
[1]
  GI50: > 100 µM (inactive)
[35]
  GI50: > 100 µM (inactive)
[36]
  GI50: > 100 µM (inactive)
[37]
  GI50: > 100 µM (inactive)
[2]
  GI50: > 100 µM (inactive)
[3]
  GI50: > 100 µM (inactive)
[4]
  GI50: > 100 µM (inactive)
[5]
  GI50: > 100 µM (inactive)
[6]
  GI50: > 100 µM (inactive)
[7]
  GI50: > 100 µM (inactive)
[38]
  GI50: > 100 µM (inactive)
[8]
  GI50: > 100 µM (inactive)
[9]
  GI50: > 100 µM (inactive)
[10]
  GI50: > 100 µM (inactive)
[12]
  GI50: > 100 µM (inactive)
[39]
  GI50: > 100 µM (inactive)
[13]
  GI50: > 100 µM (inactive)
[14]
  GI50: > 100 µM (inactive)
[40]
  GI50: > 100 µM (inactive)
[15]
  GI50: > 100 µM (inactive)
[17]
  GI50: > 100 µM (inactive)
[18]
  GI50: > 100 µM (inactive)
[19]
  GI50: > 100 µM (inactive)
[20]
  GI50: > 100 µM (inactive)
[21]
  GI50: > 100 µM (inactive)
[41]
  GI50: > 100 µM (inactive)
[22]
  GI50: > 100 µM (inactive)
[42]
  GI50: > 100 µM (inactive)
[43]
  GI50: > 100 µM (inactive)
[44]
  GI50: > 100 µM (inactive)
[24]
  GI50: > 100 µM (inactive)
[45]
  GI50: > 100 µM (inactive)
[25]
  GI50: > 100 µM (inactive)
[46]
  GI50: > 100 µM (inactive)
[26]
  GI50: > 100 µM (inactive)
[27]
  GI50: > 100 µM (inactive)
[28]
  GI50: > 100 µM (inactive)
[47]
  GI50: > 100 µM (inactive)
[29]
  GI50: > 100 µM (inactive)
[48]
  GI50: > 100 µM (inactive)
[49]
  GI50: > 100 µM (inactive)
[30]
  GI50: > 100 µM (inactive)
[31]
  GI50: > 100 µM (inactive)
[32]
  GI50: > 100 µM (inactive)
[50]
  GI50: > 100 µM (inactive)
[51]
  GI50: > 100 µM (inactive)
[52]
  GI50: > 100 µM (inactive)
[53]
  GI50: > 100 µM (inactive)
[33]
  GI50: > 100 µM (inactive)
[34]
  GI50: > 100 µM (inactive)

## CCCCc1c2c(nc3c1CCc1cc4cc5c(nc4nc1-3)-c1nc3c(c(CCCC)c1CC5)CCC/C3=C\c1ccccc1)/C(=C/c1ccccc1)CCC2
[1]
  GI50: > 100 µM (inactive)
[36]
  GI50: > 100 µM (inactive)
[37]
  GI50: > 100 µM (inactive)
[3]
  GI50: > 100 µM (inactive)
[4]
  GI50: > 100 µM (inactive)
[5]
  GI50: > 100 µM (inactive)
[6]
  GI50: > 100 µM (inactive)
[7]
  GI50: > 100 µM (inactive)
[38]
  GI50: > 100 µM (inactive)
[8]
  GI50: > 100 µM (inactive)
[9]
  GI50: > 100 µM (inactive)
[54]
  GI50: > 100 µM
[10]
  GI50: > 100 µM (inactive)
[11]
  GI50: > 100 µM (inactive)
[39]
  GI50: > 100 µM (inactive)
[13]
  GI50: > 100 µM (inactive)
[14]
  GI50: > 100 µM (inactive)
[55]
  GI50: > 100 µM (inactive)
[40]
  GI50: > 100 µM (inactive)
[56]
  GI50: > 100 µM (inactive)
[15]
  GI50: > 100 µM (inactive)
[16]
  GI50: > 100 µM (inactive)
[18]
  GI50: > 100 µM (inactive)
[19]
  GI50: > 100 µM (inactive)
[20]
  GI50: > 100 µM (inactive)
[21]
  GI50: > 100 µM (inactive)
[41]
  GI50: > 100 µM (inactive)
[22]
  GI50: > 100 µM (inactive)
[42]
  GI50: > 100 µM (inactive)
[44]
  GI50: > 100 µM (inactive)
[24]
  GI50: > 100 µM (inactive)
[45]
  GI50: > 100 µM (inactive)
[25]
  GI50: > 100 µM (inactive)
[46]
  GI50: > 100 µM (inactive)
[26]
  GI50: > 100 µM (inactive)
[27]
  GI50: > 100 µM (inactive)
[29]
  GI50: > 100 µM (inactive)
[48]
  GI50: > 100 µM (inactive)
[49]
  GI50: > 100 µM (inactive)
[30]
  GI50: > 100 µM (inactive)
[31]
  GI50: > 100 µM (inactive)
[32]
  GI50: > 100 µM (inactive)
[50]
  GI50: > 100 µM (inactive)
[51]
  GI50: > 100 µM (inactive)
[52]
  GI50: > 100 µM (inactive)
[53]
  GI50: > 100 µM (inactive)
[33]
  GI50: > 100 µM (inactive)
[34]
  GI50: > 100 µM (inactive)
